# Measurements: PubChem BioAssay AID248 (DTP/NCI, 2004)
# Values joined by “and” are separate entries in the source; they are usually repeats but may differ in a detail not shown here. Identical values can stand only once. Toxic doses and inconclusive results are not listed.
# System: L1210 leukemia ip in BDF1 mice, survival T/C
# Assay: NCI In Vivo Anticancer Drug Screen. Data for tumor model L1210 Leukemia (intraperitoneal) in B6D2F1 (BDF1) mice
# Conditions: endpoint: mean survival time, higher = longer survival
# In short: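 Ratio derived from survival: compound-dosed mice over vehicle-dosed mice, all bearing a transplantable tumor.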
# [1] = dose: 100.0 mg/kg/injection, schedule: Q01DX009 (ip), vehicle: saline
# [2] = dose: 100.0 mg/kg/injection, schedule: Q04DX003 (ip), vehicle: saline
# [3] = dose: 200.0 mg/kg/injection, schedule: Q01DX009 (ip), vehicle: saline
# [4] = dose: 200.0 mg/kg/injection, schedule: Q04DX003 (ip), vehicle: saline
# [5] = dose: 400.0 mg/kg/injection, schedule: Q01DX009 (ip), vehicle: saline
# [6] = dose: 400.0 mg/kg/injection, schedule: Q04DX003 (ip), vehicle: saline
# [7] = dose: 100.0 mg/kg/injection, schedule: Q04DX003 (ip), vehicle: Klucel (hydroxypropylcellulose) (HPC)
# [8] = dose: 200.0 mg/kg/injection, schedule: Q04DX003 (ip), vehicle: Klucel (hydroxypropylcellulose) (HPC)
# [9] = dose: 400.0 mg/kg/injection, schedule: Q04DX003 (ip), vehicle: Klucel (hydroxypropylcellulose) (HPC)
# [10] = dose: 100.0 mg/kg/injection, schedule: Q01DX001 (ip), vehicle: carboxymethylcellulose (CMC)
# [11] = dose: 200.0 mg/kg/injection, schedule: Q01DX001 (ip), vehicle: carboxymethylcellulose (CMC)
# [12] = dose: 400.0 mg/kg/injection, schedule: Q01DX001 (ip), vehicle: carboxymethylcellulose (CMC)
# [13] = dose: 50.0 mg/kg/injection, schedule: Q01DX009 (ip), vehicle: saline with Tween-80
# [14] = dose: 100.0 mg/kg/injection, schedule: Q01DX009 (ip), vehicle: saline with Tween-80
# [15] = dose: 200.0 mg/kg/injection, schedule: Q01DX009 (ip), vehicle: saline with Tween-80
# [16] = dose: 100.0 mg/kg/injection, schedule: Q04DX003 (ip), vehicle: acetone
# [17] = dose: 200.0 mg/kg/injection, schedule: Q04DX003 (ip), vehicle: acetone
# [18] = dose: 400.0 mg/kg/injection, schedule: Q04DX003 (ip), vehicle: acetone
# [19] = dose: 100.0 mg/kg/injection, schedule: Q01DX001 (ip), vehicle: Klucel (hydroxypropylcellulose) (HPC)
# [20] = dose: 200.0 mg/kg/injection, schedule: Q01DX001 (ip), vehicle: Klucel (hydroxypropylcellulose) (HPC)
# [21] = dose: 400.0 mg/kg/injection, schedule: Q01DX001 (ip), vehicle: Klucel (hydroxypropylcellulose) (HPC)
structure (smiles),measurement,setting,value
CNC(=O)NCCOC(=O)NC,T/C,[1],94 % of control
same,T/C,[2],96 % of control
same,T/C,[3],98 % of control
same,T/C,[4],101 % of control
same,T/C,[5],107 % of control
same,T/C,[6],101 % of control
CC(C)(C)c1ccc(C(=O)O)cc1.[Cu+2],T/C,"dose: 2.5 mg/kg/injection, schedule: Q01DX009 (ip), vehicle: Klucel (hydroxypropylcellulose) (HPC)",109 % of control
same,T/C,"dose: 5.0 mg/kg/injection, schedule: Q01DX009 (ip), vehicle: Klucel (hydroxypropylcellulose) (HPC)",101 % of control
same,T/C,"dose: 10.0 mg/kg/injection, schedule: Q01DX009 (ip), vehicle: Klucel (hydroxypropylcellulose) (HPC)",106 % of control
same,T/C,"dose: 20.0 mg/kg/injection, schedule: Q01DX009 (ip), vehicle: Klucel (hydroxypropylcellulose) (HPC)",101 % of control
CS(=O)(=O)OCCN(CCOS(C)(=O)=O)c1ccc(C=Nc2cccc(Br)c2)c(Cl)c1,T/C,[7],111 % of control
same,T/C,[8],111 % of control
same,T/C,[9],120 % of control
C(=N\Nc1nc2ccccc2s1)/c1ccc(/C=N/Nc2nc3ccccc3s2)cc1,T/C,"dose: 100.0 mg/kg/injection, schedule: Q01DX009 (ip), vehicle: Klucel (hydroxypropylcellulose) (HPC)",96 % of control
same,T/C,"dose: 200.0 mg/kg/injection, schedule: Q01DX009 (ip), vehicle: Klucel (hydroxypropylcellulose) (HPC)",96 % of control
same,T/C,"dose: 400.0 mg/kg/injection, schedule: Q01DX009 (ip), vehicle: Klucel (hydroxypropylcellulose) (HPC)",104 % of control
S=c1ncn(C2CCCCC2)c(=S)[nH]1,T/C,[7],95 % of control
same,T/C,[9],102 % of control
O=C1c2ccccc2-c2cccc([N+](=O)[O-])c21,T/C,[10],97 % of control
same,T/C,[11],92 % of control
same,T/C,[12],97 % of control
O=C1NC(=O)C([n+]2ccccc2)=C1[O-],T/C,"dose: 25.0 mg/kg/injection, schedule: Q04DX003 (ip), vehicle: saline",110 % of control
same,T/C,"dose: 50.0 mg/kg/injection, schedule: Q04DX003 (ip), vehicle: saline",110 % of control
same,T/C,[2],94 % of control and 100 % of control
same,T/C,[4],96 % of control
Nc1nc(N)c(N=Nc2c(Br)cc(S(N)(=O)=O)cc2Br)c(N)n1,T/C,[10],94 % of control
same,T/C,[11],94 % of control
same,T/C,[12],100 % of control
N#Cc1c2c(c(O)[nH]c1=O)CCCC2,T/C,[1],97 % of control
same,T/C,[7],94 % of control
same,T/C,[3],97 % of control
same,T/C,[8],102 % of control
same,T/C,[5],101 % of control
same,T/C,[9],96 % of control
C/C(=N\NS(=O)(=O)c1ccccc1)C(C)C,T/C,"dose: 75.0 mg/kg/injection, schedule: Q01DX001 (ip), vehicle: saline",101 % of control
same,T/C,"dose: 150.0 mg/kg/injection, schedule: Q01DX001 (ip), vehicle: saline",98 % of control
same,T/C,"dose: 300.0 mg/kg/injection, schedule: Q01DX001 (ip), vehicle: saline",96 % of control
CCCN(CCC)C(=O)c1ccncc1,T/C,[1],107 % of control
same,T/C,[2],101 % of control
same,T/C,[3],102 % of control
same,T/C,[4],102 % of control
same,T/C,[5],91 % of control
same,T/C,[6],114 % of control
S=C(S)NC1c2ccccc2-c2ccccc21 (tested in a mixture with another compound),T/C,[10],94 % of control
same,T/C,[11],90 % of control
same,T/C,[12],96 % of control
Cc1ccc(C)c(S(=O)(=O)OCC#CCOS(=O)(=O)c2cc(C)ccc2C)c1,T/C,[13],92 % of control
same,T/C,[14],92 % of control
same,T/C,[2],97 % of control
same,T/C,[15],87 % of control
same,T/C,[4],97 % of control
same,T/C,[6],91 % of control
O=C(CCCC(=O)N=Nc1c(Cl)c(O)c2ccccc2c1O)N=Nc1c(Cl)c(O)c2ccccc2c1O,T/C,[10],118 % of control
same,T/C,[11],101 % of control
same,T/C,[12],103 % of control
CC(C)(C)OC(=O)CC(O)c1ccccc1 (stereo not drawn),T/C,"dose: 50.0 mg/kg/injection, schedule: Q01DX001 (ip), vehicle: saline",94 % of control
same,T/C,"dose: 100.0 mg/kg/injection, schedule: Q01DX001 (ip), vehicle: saline",102 % of control
same,T/C,"dose: 200.0 mg/kg/injection, schedule: Q01DX001 (ip), vehicle: saline",105 % of control
same,T/C,"dose: 400.0 mg/kg/injection, schedule: Q01DX001 (ip), vehicle: saline",102 % of control
CC1(c2ccccc2)NC(=O)N(CCC#N)C1=O (stereo not drawn),T/C,[16],100 % of control
same,T/C,[17],90 % of control
same,T/C,[18],104 % of control
O/N=C/c1ccc(Cl)cc1Cl,T/C,"dose: 50.0 mg/kg/injection, schedule: Q04DX003 (ip), vehicle: Klucel (hydroxypropylcellulose) (HPC)",97 % of control
same,T/C,[19],94 % of control
same,T/C,[7],95 % of control
same,T/C,[20],97 % of control
same,T/C,[8],97 % of control
same,T/C,[21],102 % of control
Brc1c2ccccc2cc2ccccc12,T/C,"dose: 100.0 mg/kg/injection, schedule: Q04DX002 (ip), vehicle: gum acacia",101 % of control
same,T/C,"dose: 200.0 mg/kg/injection, schedule: Q04DX002 (ip), vehicle: gum acacia",93 % of control
same,T/C,"dose: 400.0 mg/kg/injection, schedule: Q04DX002 (ip), vehicle: gum acacia",96 % of control
Nc1ccn(CC(=O)c2ccco2)c(=O)n1,T/C,"dose: 50.0 mg/kg/injection, schedule: Q01DX009 (ip), vehicle: saline",111 % of control
same,T/C,[1],111 % of control and 90 % of control
same,T/C,[2],104 % of control
same,T/C,[3],105 % of control
same,T/C,[4],97 % of control
CCOP(=O)(Nc1ccc2c(c1)C(=O)c1ccccc1-2)OCC,T/C,"dose: 50.0 mg/kg/injection, schedule: Q01DX001 (ip), vehicle: carboxymethylcellulose (CMC)",97 % of control
same,T/C,[10],103 % of control
same,T/C,[11],100 % of control
same,T/C,[12],103 % of control
Oc1ccc(Br)cc1C=Nc1cnc2ccccc2c1,T/C,[10],90 % of control
same,T/C,[11],90 % of control
Cc1ccc(CSc2ssc(=S)c2-c2ccccc2)cc1,T/C,[14],101 % of control
same,T/C,[16],99 % of control
same,T/C,[15],97 % of control
same,T/C,[17],98 % of control
same,T/C,"dose: 400.0 mg/kg/injection, schedule: Q01DX009 (ip), vehicle: saline with Tween-80",95 % of control
same,T/C,[18],91 % of control
O=NN1CCCNC1=O,T/C,"dose: 3.0 mg/kg/injection, schedule: Q01DX Z (ip), vehicle: carboxymethylcellulose (CMC)",105 % of control
same,T/C,"dose: 6.0 mg/kg/injection, schedule: Q01DX Z (ip), vehicle: carboxymethylcellulose (CMC)",107 % of control
same,T/C,"dose: 12.0 mg/kg/injection, schedule: Q01DX Z (ip), vehicle: carboxymethylcellulose (CMC)",110 % of control
same,T/C,"dose: 50.0 mg/kg/injection, schedule: Q01DX Z (ip), vehicle: carboxymethylcellulose (CMC)",181 % of control
same,T/C,"dose: 75.0 mg/kg/injection, schedule: Q01DX Z (ip), vehicle: carboxymethylcellulose (CMC)",118 % of control
same,T/C,"dose: 100.0 mg/kg/injection, schedule: Q01DX Z (ip), vehicle: carboxymethylcellulose (CMC)",87 % of control
CC(C)=NNS(=O)(=O)c1ccccc1,T/C,[13],106 % of control
same,T/C,[14],108 % of control
same,T/C,[15],101 % of control
Nc1ccc(CC(=O)O)cc1,T/C,[19],97 % of control
same,T/C,[20],101 % of control
same,T/C,[21],88 % of control
C=C1OC(n2cnc3c(=N)n(O)cnc32)C2OC(C)(C)OC12 (stereo not drawn),T/C,"dose: 100.0 mg/kg/injection, schedule: Q01DX005 (ip), vehicle: saline",96 % of control
same,T/C,"dose: 200.0 mg/kg/injection, schedule: Q01DX005 (ip), vehicle: saline",102 % of control
OCc1ccc(Cl)cc1Cl,T/C,[13],107 % of control
same,T/C,[14],103 % of control
same,T/C,"dose: 100.0 mg/kg/injection, schedule: Q04DX003 (ip), vehicle: saline with Tween-80",100 % of control
same,T/C,[15],103 % of control
same,T/C,"dose: 200.0 mg/kg/injection, schedule: Q04DX003 (ip), vehicle: saline with Tween-80",105 % of control
same,T/C,"dose: 400.0 mg/kg/injection, schedule: Q04DX003 (ip), vehicle: saline with Tween-80",102 % of control
